Data taken from ChEMBL document CHEMBL2074269, “The interaction of n-tetraalkylammonium compounds with a human organic cation transporter, hOCT1” (J Pharmacol Exp Ther, 1999).

Target: T1, Solute carrier family 22 member 1 (Homo sapiens, UniProt O15245)
T1 sequence (O15245 whole entry): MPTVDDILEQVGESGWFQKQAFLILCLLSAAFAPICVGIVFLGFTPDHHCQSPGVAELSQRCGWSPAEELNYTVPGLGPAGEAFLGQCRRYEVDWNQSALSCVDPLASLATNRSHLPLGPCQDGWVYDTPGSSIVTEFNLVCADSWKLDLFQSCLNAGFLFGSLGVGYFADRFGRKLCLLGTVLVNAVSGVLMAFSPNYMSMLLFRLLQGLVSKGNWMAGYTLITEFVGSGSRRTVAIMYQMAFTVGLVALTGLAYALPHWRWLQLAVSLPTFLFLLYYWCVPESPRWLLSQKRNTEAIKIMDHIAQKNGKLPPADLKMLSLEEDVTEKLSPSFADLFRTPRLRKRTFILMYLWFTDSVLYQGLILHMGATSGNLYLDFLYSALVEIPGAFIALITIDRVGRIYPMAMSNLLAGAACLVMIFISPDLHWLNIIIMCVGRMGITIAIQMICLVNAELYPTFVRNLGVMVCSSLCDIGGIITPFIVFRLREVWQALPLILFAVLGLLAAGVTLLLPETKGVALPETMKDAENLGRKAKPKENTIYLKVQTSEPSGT
Format: functional, cell-based, HeLa

SMILES | IC50
CCC[N+](CCC)(CCC)CCC [TETRAPROPYLAMMONIUM] | 90 µM
CCCCCC[N+](CCCCCC)(CCCCCC)CCCCCC [TETRAHEXYLAMMONIUM] | 3 µM
CCCC[N+](CCCC)(CCCC)CCCC [TETRABUTHYLAMMONIUM] | 52 µM
